Reference: ChEMBL document CHEMBL4411296, “Design and development of Isatin-triazole hydrazones as potential inhibitors of microtubule affinity-regulating kinase 4 for the therapeutic management of cell proliferation and metastasis” (Eur J Med Chem, 2019)
Calls of active or inactive are those of the source. The rule behind the calls is not given here.

Key:
[1] = biological target: Calcium/calmodulin-dependent protein kinase type II subunit beta (Homo sapiens) (UniProt Q13554); experiment: Inhibition of CAMKII (unknown origin) at 10 uM after 60 mins by ADP-Glo luminescence assay
Chain of Calcium/calmodulin-dependent protein kinase type II subunit beta (Homo sapiens) (Q13554 whole entry): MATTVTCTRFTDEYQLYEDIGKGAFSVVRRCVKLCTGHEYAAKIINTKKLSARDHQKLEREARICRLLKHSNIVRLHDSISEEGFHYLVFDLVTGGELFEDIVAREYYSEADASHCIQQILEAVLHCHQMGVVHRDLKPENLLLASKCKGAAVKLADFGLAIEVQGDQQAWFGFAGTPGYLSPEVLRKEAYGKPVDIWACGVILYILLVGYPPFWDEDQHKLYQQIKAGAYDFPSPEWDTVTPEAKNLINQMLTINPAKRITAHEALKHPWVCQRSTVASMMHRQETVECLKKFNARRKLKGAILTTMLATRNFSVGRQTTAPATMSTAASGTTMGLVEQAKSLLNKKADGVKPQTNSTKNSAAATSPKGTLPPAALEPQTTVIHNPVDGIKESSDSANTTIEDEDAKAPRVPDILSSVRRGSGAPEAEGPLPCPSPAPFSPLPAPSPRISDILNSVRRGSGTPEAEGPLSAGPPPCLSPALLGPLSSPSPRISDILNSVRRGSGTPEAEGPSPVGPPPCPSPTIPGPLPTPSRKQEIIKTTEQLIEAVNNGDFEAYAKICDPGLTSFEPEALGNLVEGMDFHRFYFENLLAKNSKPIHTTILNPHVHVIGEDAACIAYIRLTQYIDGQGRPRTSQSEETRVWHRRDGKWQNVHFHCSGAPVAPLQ

[2] = biological target: 5'-AMP-activated protein kinase catalytic subunit alpha-1 (Homo sapiens) (UniProt Q13131); experiment: Inhibition of AMPKA1 (unknown origin) at 10 uM after 60 mins by ADP-Glo luminescence assay
Chain of 5'-AMP-activated protein kinase catalytic subunit alpha-1 (Homo sapiens) (Q13131 whole entry, looked up): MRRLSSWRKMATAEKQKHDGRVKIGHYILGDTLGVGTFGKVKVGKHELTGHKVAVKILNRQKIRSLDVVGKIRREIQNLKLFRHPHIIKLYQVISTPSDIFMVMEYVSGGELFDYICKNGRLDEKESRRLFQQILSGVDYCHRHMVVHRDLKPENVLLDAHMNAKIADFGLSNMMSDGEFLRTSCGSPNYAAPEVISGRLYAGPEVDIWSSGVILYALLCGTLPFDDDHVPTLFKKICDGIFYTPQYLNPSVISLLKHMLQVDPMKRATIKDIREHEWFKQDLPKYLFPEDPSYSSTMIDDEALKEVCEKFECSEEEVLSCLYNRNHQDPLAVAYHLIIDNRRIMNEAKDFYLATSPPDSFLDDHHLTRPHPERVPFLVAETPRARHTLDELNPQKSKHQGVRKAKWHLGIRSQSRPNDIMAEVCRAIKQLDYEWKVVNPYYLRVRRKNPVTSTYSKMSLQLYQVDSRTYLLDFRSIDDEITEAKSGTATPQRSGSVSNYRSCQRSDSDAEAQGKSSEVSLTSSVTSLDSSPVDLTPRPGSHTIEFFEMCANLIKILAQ

[3] = biological target: Death-associated protein kinase 1 (Homo sapiens) (UniProt P53355); experiment: Inhibition of DAPK1 (unknown origin) at 10 uM after 60 mins by ADP-Glo luminescence assay
Chain of Death-associated protein kinase 1 (Homo sapiens) (P53355 whole entry, looked up): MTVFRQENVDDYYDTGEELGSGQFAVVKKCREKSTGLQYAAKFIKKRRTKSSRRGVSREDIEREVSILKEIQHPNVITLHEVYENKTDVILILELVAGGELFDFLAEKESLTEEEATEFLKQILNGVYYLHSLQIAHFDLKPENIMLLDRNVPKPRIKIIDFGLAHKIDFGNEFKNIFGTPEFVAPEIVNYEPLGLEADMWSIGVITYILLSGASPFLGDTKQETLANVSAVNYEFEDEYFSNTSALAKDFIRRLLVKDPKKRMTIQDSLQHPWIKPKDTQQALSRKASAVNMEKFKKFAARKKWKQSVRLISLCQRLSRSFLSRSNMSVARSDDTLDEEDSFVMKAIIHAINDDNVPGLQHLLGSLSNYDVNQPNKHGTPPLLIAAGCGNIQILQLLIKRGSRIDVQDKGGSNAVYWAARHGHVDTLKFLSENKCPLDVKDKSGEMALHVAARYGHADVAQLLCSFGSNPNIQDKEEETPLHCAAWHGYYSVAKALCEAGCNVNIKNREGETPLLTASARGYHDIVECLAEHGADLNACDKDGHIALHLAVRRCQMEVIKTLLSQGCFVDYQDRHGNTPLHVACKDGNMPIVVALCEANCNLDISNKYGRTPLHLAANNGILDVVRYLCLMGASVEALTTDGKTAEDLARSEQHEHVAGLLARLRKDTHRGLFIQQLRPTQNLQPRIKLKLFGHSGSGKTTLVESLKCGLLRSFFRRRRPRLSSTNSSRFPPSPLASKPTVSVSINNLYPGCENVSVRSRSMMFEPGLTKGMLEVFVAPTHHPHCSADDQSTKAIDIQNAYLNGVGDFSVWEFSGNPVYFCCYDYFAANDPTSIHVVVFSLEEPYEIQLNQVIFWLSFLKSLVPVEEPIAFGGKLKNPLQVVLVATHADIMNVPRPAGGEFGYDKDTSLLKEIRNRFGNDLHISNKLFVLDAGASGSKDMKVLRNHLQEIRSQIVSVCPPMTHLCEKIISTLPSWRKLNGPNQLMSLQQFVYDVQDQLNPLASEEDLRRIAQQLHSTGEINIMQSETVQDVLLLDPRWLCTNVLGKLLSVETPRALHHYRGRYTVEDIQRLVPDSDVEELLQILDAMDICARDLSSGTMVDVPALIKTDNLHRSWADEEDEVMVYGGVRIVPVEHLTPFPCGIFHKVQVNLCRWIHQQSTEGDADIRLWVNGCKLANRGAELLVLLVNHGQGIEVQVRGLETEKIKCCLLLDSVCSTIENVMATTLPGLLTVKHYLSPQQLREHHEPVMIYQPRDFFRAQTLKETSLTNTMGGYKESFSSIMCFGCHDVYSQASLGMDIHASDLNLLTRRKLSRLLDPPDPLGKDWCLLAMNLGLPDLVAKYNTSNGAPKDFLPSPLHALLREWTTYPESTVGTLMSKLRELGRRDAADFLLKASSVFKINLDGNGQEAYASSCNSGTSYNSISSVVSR

[4] = biological target: Transcription factor HIVEP2 (Homo sapiens) (UniProt P31629); experiment: Inhibition of MBP2 (unknown origin) at 10 uM after 60 mins by ADP-Glo luminescence assay
MDA-MB-435S [5] = experiment: Induction of apoptosis in human MDA-MB-435S cells assessed as late apoptotic cells at IC50 after 24 hrs by Annexin V-FITC/propidium iodide staining-based flow cytometric analysis (reference value: 0.18%); assay type: functional
MCF7 [6] = experiment: Induction of ROS generation in human MCF7 cells at IC50 after 5 to 6 hrs by DCFDA staining-based spectroflourimetric analysis; assay type: functional, cell-based
HEK293 = experiment: Antiproliferative activity against human HEK293 cells assessed as cell viability after 48 hrs by MTT assay; assay type: cell-based; details: HEK293, 48 h
[7] = biological target: Serine/threonine-protein kinase Chk1 (Homo sapiens) (UniProt O14757); experiment: Inhibition of CHK1 (unknown origin) at 10 uM after 60 mins by ADP-Glo luminescence assay
Chain of Serine/threonine-protein kinase Chk1 (Homo sapiens) (O14757 whole entry): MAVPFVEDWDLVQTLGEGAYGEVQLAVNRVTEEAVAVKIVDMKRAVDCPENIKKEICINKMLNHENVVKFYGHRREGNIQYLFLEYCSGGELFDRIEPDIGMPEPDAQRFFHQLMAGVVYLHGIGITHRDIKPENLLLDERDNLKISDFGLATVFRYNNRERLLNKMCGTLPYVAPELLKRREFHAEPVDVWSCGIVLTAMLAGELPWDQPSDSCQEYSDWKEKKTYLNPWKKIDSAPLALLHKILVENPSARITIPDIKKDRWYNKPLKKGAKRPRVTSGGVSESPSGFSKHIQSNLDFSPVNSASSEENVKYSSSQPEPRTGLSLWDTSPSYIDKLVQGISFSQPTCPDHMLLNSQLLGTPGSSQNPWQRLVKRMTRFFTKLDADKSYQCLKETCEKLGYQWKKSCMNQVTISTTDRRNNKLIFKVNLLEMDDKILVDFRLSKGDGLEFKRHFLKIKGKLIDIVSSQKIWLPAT

MDA-MB-435S [8] = experiment: cells; details: Homo sapiens, 48 h
Description: Antiproliferative activity against human MDA-MB-435S cells assessed as cell viability after 48 hrs by MTT assay

[9] = biological target: Serine/threonine-protein kinase Chk2 (Homo sapiens) (UniProt O96017); experiment: Inhibition of CHK2 (unknown origin) at 10 uM after 60 mins by ADP-Glo luminescence assay
HepG2 [10] = experiment: Induction of apoptosis in human HepG2 cells assessed as late apoptotic cells at IC50 after 24 hrs by Annexin V-FITC/propidium iodide staining-based flow cytometric analysis (reference value: 0.039%); assay type: functional
MCF7 [11] = experiment: Antimigratory activity against human MCF7 cells at IC50 after 48 hrs by wound-healing assay; assay type: functional, cell-based
[12] = biological target: Serine/threonine-protein kinase 33 (Homo sapiens) (UniProt Q9BYT3); experiment: Inhibition of STK33 (unknown origin) at 10 uM after 60 mins by ADP-Glo luminescence assay
MDA-MB-435S [13] = experiment: Induction of ROS generation in human MDA-MB-435S cells at IC50 after 5 to 6 hrs by DCFDA staining-based spectroflourimetric analysis; assay type: functional, cell-based
MCF7 [14] = experiment: Induction of apoptosis in human MCF7 cells assessed as early apoptotic cells at IC50 after 24 hrs by Annexin V-FITC/propidium iodide staining-based flow cytometric analysis (reference value: 1.23%); assay type: functional
HepG2 [15] = experiment: Antiproliferative activity against human HepG2 cells assessed as cell viability after 48 hrs by MTT assay; details: HepG2, 48 h
HepG2 [16] = experiment: Antimigratory activity against human HepG2 cells at IC50 after 48 hrs by wound-healing assay; assay type: functional, cell-based
[17] = biological target: MAP kinase-activated protein kinase 2 (Homo sapiens) (UniProt P49137); experiment: Inhibition of MAPKAPK2 (unknown origin) at 10 uM after 60 mins by ADP-Glo luminescence assay
HepG2 [18] = experiment: Induction of apoptosis in human HepG2 cells assessed as viable cells at IC50 after 24 hrs by Annexin V-FITC/propidium iodide staining-based flow cytometric analysis (reference value: 97.6%); assay type: functional
[19] = biological target: Calcium/calmodulin-dependent protein kinase type II subunit beta (Homo sapiens) (UniProt Q13554); experiment: Inhibition of CAMK2 beta (unknown origin) at 10 uM after 60 mins by ADP-Glo luminescence assay
[20] = biological target: 5'-AMP-activated protein kinase subunit beta-1 (Homo sapiens) (UniProt Q9Y478); experiment: Inhibition of AMPKB1 (unknown origin) at 10 uM after 60 mins by ADP-Glo luminescence assay
MDA-MB-435S [21] = experiment: Induction of apoptosis in human MDA-MB-435S cells assessed as viable cells at IC50 after 24 hrs by Annexin V-FITC/propidium iodide staining-based flow cytometric analysis (reference value: 98.8%); assay type: functional
[22] = biological target: Calcium/calmodulin-dependent protein kinase type IV (Homo sapiens) (UniProt Q16566); experiment: Inhibition of CAMK4 (unknown origin) at 10 uM after 60 mins by ADP-Glo luminescence assay
Chain of Calcium/calmodulin-dependent protein kinase type IV (Homo sapiens) (Q16566 whole entry): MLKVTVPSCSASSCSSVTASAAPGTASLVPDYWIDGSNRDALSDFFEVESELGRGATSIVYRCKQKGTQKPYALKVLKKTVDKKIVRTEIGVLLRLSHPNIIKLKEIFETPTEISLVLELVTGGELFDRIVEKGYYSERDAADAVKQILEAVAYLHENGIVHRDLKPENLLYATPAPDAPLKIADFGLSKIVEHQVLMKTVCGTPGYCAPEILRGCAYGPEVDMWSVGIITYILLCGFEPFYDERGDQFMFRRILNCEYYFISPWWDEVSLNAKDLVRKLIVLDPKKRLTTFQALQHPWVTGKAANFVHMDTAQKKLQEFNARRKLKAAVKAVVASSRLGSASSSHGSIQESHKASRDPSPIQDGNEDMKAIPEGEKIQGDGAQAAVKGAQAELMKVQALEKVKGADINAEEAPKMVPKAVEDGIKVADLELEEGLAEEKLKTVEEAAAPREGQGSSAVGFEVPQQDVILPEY

[23] = biological target: Calcium/calmodulin-dependent protein kinase type 1 (Homo sapiens) (UniProt Q14012); experiment: Inhibition of CAMKI (unknown origin) at 10 uM after 60 mins by ADP-Glo luminescence assay
Chain of Calcium/calmodulin-dependent protein kinase type 1 (Homo sapiens) (Q14012 whole entry, looked up): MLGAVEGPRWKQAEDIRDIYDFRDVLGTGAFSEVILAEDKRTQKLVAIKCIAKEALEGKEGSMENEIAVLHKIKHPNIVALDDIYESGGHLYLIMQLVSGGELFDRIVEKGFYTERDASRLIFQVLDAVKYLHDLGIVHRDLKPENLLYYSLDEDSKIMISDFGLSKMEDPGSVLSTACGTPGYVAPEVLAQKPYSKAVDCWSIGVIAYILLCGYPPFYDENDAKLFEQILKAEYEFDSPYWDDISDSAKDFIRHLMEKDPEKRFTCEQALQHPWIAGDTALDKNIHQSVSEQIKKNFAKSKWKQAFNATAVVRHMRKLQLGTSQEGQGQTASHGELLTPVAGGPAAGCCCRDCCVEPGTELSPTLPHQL

HepG2 [24] = experiment: Induction of apoptosis in human HepG2 cells assessed as necrotic cells at IC50 after 24 hrs by Annexin V-FITC/propidium iodide staining-based flow cytometric analysis (reference value: […]); assay type: functional
HepG2 [25] = experiment: Induction of apoptosis in human HepG2 cells assessed as early apoptotic cells at IC50 after 24 hrs by Annexin V-FITC/propidium iodide staining-based flow cytometric analysis (reference value: […]); assay type: functional
[26] = biological target: PAS domain-containing serine/threonine-protein kinase (Homo sapiens) (UniProt Q96RG2); experiment: Inhibition of PASK (unknown origin) at 10 uM after 60 mins by ADP-Glo luminescence assay
Albumin = Albumin (Homo sapiens, UniProt P02768); experiment: Binding affinity to HSA by ITC; assay type: ADME; details: isolated protein
MCF7 [27] = experiment: Induction of apoptosis in human MCF7 cells assessed as viable cells at IC50 after 24 hrs by Annexin V-FITC/propidium iodide staining-based flow cytometric analysis (reference value: 98.4%); assay type: functional
MCF7 [28] = experiment: Antiproliferative activity against human MCF7 cells assessed as cell viability after 48 hrs by MTT assay; details: MCF7, 48 h
[29] = biological target: Serine/threonine-protein kinase D1 (Homo sapiens) (UniProt Q15139); experiment: Inhibition of PKCmu (unknown origin) at 10 uM after 60 mins by ADP-Glo luminescence assay
Chain of Serine/threonine-protein kinase D1 (Homo sapiens) (Q15139 whole entry): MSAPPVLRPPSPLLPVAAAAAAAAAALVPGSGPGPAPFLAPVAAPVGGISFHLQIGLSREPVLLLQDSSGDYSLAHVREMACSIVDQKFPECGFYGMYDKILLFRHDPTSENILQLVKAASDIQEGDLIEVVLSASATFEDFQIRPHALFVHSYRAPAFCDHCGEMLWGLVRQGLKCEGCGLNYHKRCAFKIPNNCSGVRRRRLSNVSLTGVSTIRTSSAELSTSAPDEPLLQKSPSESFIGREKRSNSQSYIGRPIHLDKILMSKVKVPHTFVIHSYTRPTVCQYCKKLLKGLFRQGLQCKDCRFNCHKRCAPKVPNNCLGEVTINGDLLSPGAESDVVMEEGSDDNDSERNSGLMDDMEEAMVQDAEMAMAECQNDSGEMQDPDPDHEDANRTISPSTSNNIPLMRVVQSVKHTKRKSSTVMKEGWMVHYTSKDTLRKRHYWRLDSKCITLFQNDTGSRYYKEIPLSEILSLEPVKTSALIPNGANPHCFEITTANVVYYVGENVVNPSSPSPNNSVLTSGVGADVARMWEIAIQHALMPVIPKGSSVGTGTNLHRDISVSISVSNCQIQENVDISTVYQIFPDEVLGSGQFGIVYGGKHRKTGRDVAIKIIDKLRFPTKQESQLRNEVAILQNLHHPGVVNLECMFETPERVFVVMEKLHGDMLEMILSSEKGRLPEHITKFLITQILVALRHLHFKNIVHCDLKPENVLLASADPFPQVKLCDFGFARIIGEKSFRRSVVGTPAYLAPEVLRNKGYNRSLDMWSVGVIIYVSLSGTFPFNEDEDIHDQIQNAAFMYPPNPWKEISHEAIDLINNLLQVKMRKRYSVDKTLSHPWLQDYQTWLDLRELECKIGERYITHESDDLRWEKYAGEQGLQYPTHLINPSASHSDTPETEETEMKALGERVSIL

MDA-MB-435S [30] = experiment: Induction of apoptosis in human MDA-MB-435S cells assessed as early apoptotic cells at IC50 after 24 hrs by Annexin V-FITC/propidium iodide staining-based flow cytometric analysis (reference value: 0.36%); assay type: functional
[31] = biological target: Serine/threonine-protein kinase MARK1 (Homo sapiens) (UniProt Q9P0L2); experiment: Inhibition of MARK1 (unknown origin) at 10 uM after 60 mins by ADP-Glo luminescence assay

In the case of `COc1ccc(Cn2cc(C(=O)N/N=C3/C(=O)Nc4c(C)cccc43)nn2)cc1`, the inhibition [1] is reported as “inactive”, the inhibition [2] is reported as “inactive” and the inhibition [3] is reported as “inactive”. For the same molecule, the inhibition [4] was “inactive”, the Activity (MDA-MB-435S [5]) was 2.24% and the Activity (MCF7 [6]) was “Active”. The IC50 (HEK293) was 200 µM, the inhibition [7] was “inactive” and the IC50 (MDA-MB-435S [8]) was 9.94 µM. The inhibition [9] was “inactive”, the Activity (HepG2 [10]) was 1.19% and the Activity (MCF7 [11]) was “Active”. For the same molecule, the inhibition [12] was “inactive”, the Activity (MDA-MB-435S [13]) was “Active” and the Activity (MCF7 [14]) was 33.5%. The IC50 (HepG2 [15]) was 8.14 µM, the Activity (HepG2 [16]) was “Active” and the inhibition [17] was “inactive”. For the same molecule, the Activity (HepG2 [18]) was 59.4%, the inhibition [19] was “inactive” and the inhibition [20] was “inactive”. For the same molecule, the Activity (MDA-MB-435S [21]) was 66.3%, the inhibition [22] was “inactive” and the inhibition [23] was “inactive”. The Activity (HepG2 [24]) was 2.11%, the Activity (HepG2 [25]) was 37.3% and the inhibition [26] was “inactive”. It also gave a Ka (Albumin) of 1.27 ×10⁴ /M, an Activity (MCF7 [27]) of 52.6% and an IC50 (MCF7 [28]) of 6.22 µM. For the same molecule, the inhibition [29] was “inactive”, the Activity (MDA-MB-435S [30]) was 30.9% and the inhibition [31] was “inactive”.
